Measured values from US4119724A, “Fungicidal compositions containing phosphorous acid and derivatives thereof” (Pepro, priority 1973, dated 1978).

Columns and labels:
[1] = test system: Plasmopara viticola; assay: In vivo test on vine plants, preventive treatment; conditions: 0.5 g/l, leaves sprayed 48 hours before contamination, inspected 9 days after infestation
[2] = test system: Plasmopara viticola; assay: Systemic test by root absorption on vine mildew; type: in vivo; conditions: 0.5 g/l, absorbed by the roots, assessed after about 9 days
[3] = test system: Plasmopara viticola; assay: In vivo test on vine plants, treatment after contamination; conditions: 1 g/l, inspected 9 days after contamination
[4] = Solubility in water; type: physicochemical
[5] = test system: Pythium de Baryanum; assay: In vitro test on mycelian growth (Agar Plate dilution), Pythium; type: cell-based; conditions: 0.25 g/l, 4 days at 20° C
Protocol: (§1) In vitro Test on Mycelian Growth
(§2) The compounds according to the invention are studied for their effect on the mycelian growth of the following fungi:
(§3) The "Agar Plate dilution" method is used for each test. A mixture of gelose and an acetone solution or a wettable powder containing the material to be tested in a concentration of 0.25 g/l is poured into a Petri dish at a temperature of approximately 50° C.
(§4) The gelose-containing mixture is then allowed to solidify, after which mycelian culture discs of the fungus are placed on it.
(§5) After 4 days at 20° C., the surface area of the inhibition zone observed is evaluated and expressed as a percentage of the inoculated surface area.

[6] = test system: Rhizoctonia solani; assay: In vitro test on mycelian growth (Agar Plate dilution), Rhizoctonia; type: cell-based; conditions: 0.25 g/l, 4 days at 20° C
Protocol: as §1, §2
Rhizoctonia solani, responsible for neck canker
as §3, §4, §5

[7] = test system: Plasmopara viticola; assay: Open-air test on vine stocks; type: in vivo; conditions: 2 g/l
Protocol: Groups of vine stocks (Gamay variety) are treated on the 27th June, 4th, 11th and 18th July, 1st and 7th August, with a spray of wettable powder containing 50% of an active material, namely compound 13 and manganese ethylene-1,2-bis-dithiocarbamate or manebe.
It should be noted that, in August and September, the mildew Plasmopara viticola was extremely virulent on account of heavy rainfall. For a uniform dose of 2 g/l, the results are expressed as percentage protection in relation to a contaminated but untreated control.

[8] = test system: Phytophtora parasitica; assay: Pineapple test; type: in vivo; conditions: 0.5 g/l spray 48 hours after contamination, after 30 days
Protocol: Pineapple seedlings are contaminated with Phytophtora parasitica and then treated after 48 hours by spraying with a solution containing 0.5 g/l of calcium phosphite.

[9] = test system: Phytophtora cinnamomi; assay: Avocado test; type: in vivo; conditions: soil sprayed with 3 g/l solution, after 20 days
Source text: Avocado seedlings (variety Persea indica) are planted in a soil infested with Phytophtora cinnamomi, after which the soil is sprayed with a solution containing 3 g/l of ammonium phosphite. Some seedlings are left untreated as controls. Under these conditions, it is found after 20 days that the roots of the controls are completely dead, whilst 90% of the treated seedlings are healthy.

[10] = test system: Botrytis cinerea; assay: In vitro test on mycelian growth (Agar Plate dilution), Botrytis; type: cell-based; conditions: 0.25 g/l, 4 days at 20° C
Protocol: as §1, §2
Botrytis cinerea, responsible for grey rot
as §3, §4, §5

[11] = test system: Piricularia oryzae; type: cell-based; conditions: 0.25 g/l, 4 days at 20° C
[12] = inspection date 2/10 (approx. 2 months after last treatment)
[13] = inspection date 3/9 (approx. 1 month after last treatment)
[14] = inspection date 20/10 (approx. 2.5 months after last treatment)

Molecule	protection (preventive treatment) [1]	protection by root absorption (systemic) [2]	stop of the development of mildew (treatment after contamination) [3]	also measured
cuprous phosphite [Compound 20]	total protection			
O=[PH]([O-])[O-].[Ca+2] [Compound 10, neutral calcium phosphite]	total protection	good protection		
Nc1ccccc1 [Compound 22]	good protection	total protection	completely stop the development of mildew	solubility in water [4]: insoluble
manganous phosphite [Compound 16]	total protection		completely stop the development of mildew	
NCCO.O=[PH](O)O [Compound 8, acid monoethanolamine phosphite]				inhibition of mycelian growth (inhibition zone as percentage of the inoculated surface area) [5]: 51%; inhibition of mycelian growth (inhibition zone as percentage of the inoculated surface area) [6]: 60%
trivalent iron phosphite [Compound 15]	good protection			
O=[PH]([O-])[O-].O=[PH]([O-])[O-].O=[PH]([O-])[O-].[Al+3].[Al+3] [Compound 19, neutral aluminium phosphite]	total protection	total protection		
S=C([S-])NCCNC(=S)[S-].[Mn+2] [Manebe, manganese ethylene-1,2-bis-dithiocarbamate, reference compound]				percentage protection in relation to contaminated untreated control [7, 12]: 62%; percentage protection in relation to contaminated untreated control [7, 13]: 96%; percentage protection in relation to contaminated untreated control [7, 14]: 15%
CC(C)c1ccc(N)cc1 [Compound 26]	good protection		completely stop the development of mildew	solubility in water [4]: insoluble
calcium phosphite				inhibition of the fungus in treated seedlings [8]: completely inhibited
neutral copper(II)phosphite [Compound 13]	total protection	good protection		percentage protection in relation to contaminated untreated control [7, 12]: 66%; percentage protection in relation to contaminated untreated control [7, 13]: 94%; percentage protection in relation to contaminated untreated control [7, 14]: 50%
C1COCCN1 [Compound 25]	good protection	total protection	completely stop the development of mildew	solubility in water [4]: insoluble
NC1CCCCC1 [Compound 23]		good protection		solubility in water [4]: insoluble
CC(C)c1cccc(N)c1 [Compound 27]	good protection			solubility in water [4]: insoluble
N.N.O.O=[P+](O)O [ammonium phosphite]				treated seedlings healthy [9]: 90%
O=[PH]([O-])[O-].[Mg+2] [Compound 18, neutral magnesium phosphite]	good protection			
O=[PH](O)O.c1c[nH]cn1 [Compound 21, acid phosphite of 1,3-imidazole]	good protection	total protection	completely stop the development of mildew	
O=[PH]([O-])[O-].[Zn+2] [Compound 17, neutral zinc(II)phosphite]	total protection	total protection	completely stop the development of mildew	
O=[PH]([O-])[O-].[Ba+2] [Compound 12, neutral barium phosphite]	total protection	total protection		
neutral nickel (II)phosphite [Compound 14]	total protection		completely stop the development of mildew	inhibition of mycelian growth (inhibition zone as percentage of the inoculated surface area) [6]: 78%; inhibition of mycelian growth (inhibition zone as percentage of the inoculated surface area) [10]: 48%; inhibition of mycelian growth (inhibition zone as percentage of the inoculated surface area) [11]: 59%
